Here are results for 3 compounds from patent US8258295B2, “Triazine derivatives, compositions containing such derivatives, and methods of treatment of cancer and autoimmune diseases using such derivatives” (Prometic Biosciences Inc., priority 2007, dated 2012).

In experiment [1] the test system is NHDF (normal human dermal fibroblast). Put plainly: MTT cytotoxicity on NHDF. In kind it is cell-based. As for the experimental part: (§1) This assay was performed to determine the effect of compounds of the present invention on cell cytotoxicity. Cells were incubated in presence or absence of compounds in their respective conditioned media. After 24 hr or 72 hr incubation, 50 μl of 3-(4,5-dimethyl-2-thiazyl)-2,5-diphenyl-2H-tetrazolium bromide (MTT; 2 mg/ml) was added and further incubated for 4 hr. The supernatant was discarded and 100 μl of dimethylsulfoxide (DMSO) was added. Absorbance was read at 570 nm with a TecanSunrise ELISA plate reader. The control group consisted of cells without compounds and is referred to as 100% of viable cells. IC50 was determined using Prism software.
(§2) All compounds have weak effect on cell cytotoxicity. The predictive utility of cell based cytotoxicity assays to assess the potential in vivo anticancer activity of compounds with selected cancer cell lines is well established in the art and the use of whole cells, instead of isolated protein receptors or enzymes, provides a more reliable determination of activity. See, for example, Paull et al. (J. Nat'l Cancer Inst. 81:1088-1092, 1989); Monks et al. (J. Nat'l Cancer Inst. 83:757-766, 1991); Bandes et al. (J. Nat'l Cancer Inst. 86:770-775, 1994); and Kamate et al. (Int'l J. Cancer 100:571-579, 2002).

Experiment [2] relates to HUVEC (human umbilical vein endothelial cell). Put plainly: MTT cytotoxicity on HUVEC. Format: cell-based. As to the method: as §1, §2
Experiment [3] has as its system PC-3 human prostate carcinoma cell. Nature of the experiment: MTT cytotoxicity on PC-3. In kind it is cell-based. As to the method:
as §1, §2

Another experiment has as its system PC-3 cells. Nature of the experiment: In vitro PC-3 cell migration or invasion assay (EGF-induced). The settings on record: mitomycin C treated cells, 24 hr. Format: cell-based, human. As to the method:
An in vitro migration assay was used to assess cell mobility in two dimensions. PC-3 cells were plated on a 12-well plate and grown to confluence in RPMI+10% FBS. A rubber policeman was used to create a denuded area. Confluent cells were quiesced by mitomycin C treatment (0.5 μM) at the concentration used to prevent the confounding issue of cell proliferation and protein synthesis. These cells were also incubated in the presence or absence of […] growth factor (EGF) and compound for 24 hr, then they were photographed.
The effects of EGF and compound V on PC-3 cell migration or invasion in the in vitro migration assay were determined. EGF promotes the migration or invasion of PC-3 cells treated with mitomycin compared to control (i.e., no added EGF).

The subject of another experiment is B16F10 melanoma. Nature of the experiment: Primary B16F10 melanoma tumor in mice. Format: in vivo. To be noted: C57BL/6 mice, IV on day 14, 16, 18; FIG. 2A/2B. As for the experimental part: Female 6-8 week old C57BL/6 mice were injected intradermally on day 0 with 50 μl of 3.75×10^4 viable B16F10 melanoma cells from ATCC (source of cell culture, Dr. I. J. Fidler). On day 14, tumors reached […] and animals were randomized for treatments. Animals were then injected IV with saline (negative control) or compound (5 mg/kg, 25 mg/kg, or 50 mg/kg) on day 14, day 16, and day 18 or 10 mg/kg doxorubicin (positive control) on day 14. Mice were sacrificed on day 29. Body weight and tumor volume were recorded. Serial tumor volume was obtained by bi-dimensional diameter measurements with calipers, using the formula 0.4 (a×b^2) where “a” was the major tumor diameter and “b” the minor perpendicular diameter. An antitumor effect can be quantitated by T/C, which is calculated as (Treated tumor volume/Control tumor volume)×100%.

A further experiment deals with TNFα production. Put plainly: LPS-induced TNFα production in J774A.1 cells (ELISA). In kind it is cell-based. The settings on record: Mus musculus, J774.A1, 24 hr. As for the experimental part: Effect of compounds on TNFα production was measured by ELISA using J774A.1 cells stimulated by LPS. J774A.1 cells were cultured in the presence or absence of LPS and compound. Cells were cultured for 24 hr at 37° C. and thereafter the supernatants were collected for the determination of the concentration of TNFα by ELISA as recommended by the manufacturer (BD Biosciences). Data was analyzed in Microsoft Excel software and the concentration of compound which inhibits 50% of TNFα production (IC50) was calculated using Prism software.
In general terms: In an ELISA, binding on a coated surface is turned into a signal by an enzyme label.

Experiment [4] relates to LPS-induced inflammation in the rat air-pouch model. Nature of the experiment: LPS-induced inflammation in rat air-pouch model. Format: in vivo, rats. The settings on record: IV; for PGE2 production induced by LPS / TNFα production induced by LPS / LTB4 production induced by LPS / MCP-1 production induced by LPS: pouch exudate; for LTB4 production induced by LPS: FIG. 20C; for MCP-1 production induced by LPS: FIG. 20D; for white blood cell count: two hours after LPS induction, FIG. 19. From the text: LPS-induced inflammation in the rat air-pouch model is believed to mimic the pathological process occurring in joint diseases such as arthritis. This is because the connective tissues formed along the air pouch are similar to those found in chronic joint diseases. LPS-induced inflammation and chronic joint diseases share other features, including markedly elevated PGE2, neutrophil infiltration, cytokine formation, and tissue damage.
An air cavity was produced at day −6 by subcutaneous injection of 20 ml of sterile air into the intrascapular area of the back of male Lewis rats (175 to 200 g). An additional 10 ml of air was injected into the cavity at day −3 to keep the space open. At day 0, compounds were administered intravenously and one hour later lipopolysaccharide (LPS: 2.5 ml of 2 μg/ml in PBS) was injected into the pouch to produce an inflammatory reaction. […] The pouch fluid was collected. The volume of exudates was measured and the number of leukocytes present in the exudates was determined with a Coulter counter. The differential count was determined by Wright-Giemsa staining. PGE2, LTB4, MCP, and TNFα were determined in the pouch exudates by specific ELISAs.

The test system of a further experiment is DNBS-induced colitis. Nature of the experiment: DNBS-induced colitis in CD1 mice. Format: in vivo. To be noted: vs vehicle. As to the method: The 2,4-dinitrobenzene sulfonic acid (DNBS) induced experimental colitis mouse model serves as a model of inflammatory bowel disease. On day 0, CD1 mice were sensitized with DNBS by intra-colinic instillation of 0.1 ml of an ethanolic solution (30%) of DNBS (40 mg/ml). Compound V was administered orally once a day for four consecutive days at 25 mg/kg and 50 mg/kg, starting one hour after sensitization with DNBS. On the fourth day, mice were sacrificed and 8 cm of the distal colon was collected and opened longitudinally for macroscopic evaluation.

Where [5] appears, read: 24 hr culture, read-out: IC50 of 24-hour culture NHDF.
Setting [6] is: 72 hr culture, read-out: IC50 of 72-hour culture NHDF.
Setting [7] is: 24 hr culture, read-out: IC50 of 24-hour culture HUVEC.
Setting [8] is: 72 hr culture, read-out: IC50 of 72-hour culture HUVEC.
The mark [9] stands for this setting: 24 hr culture, read-out: IC50 of 24-hour culture PC-3.
Setting [10] is: 72 hr culture, read-out: IC50 of 72-hour culture PC-3.
Where [11] appears, read: twelve hours after induction, FIG. 21B.
The mark [12] stands for this setting: twelve hours post-LPS induction, FIG. 21A.
The mark [13] stands for this setting: two hours after induction, FIG. 20A.
The mark [14] stands for this setting: two hours after induction, FIG. 20B.

Read-outs that look alike come from different tables or passages of the source. Bounds are passed on as bounds.

Consider `NCCCCCNc1nc(NCCc2ccc(O)cc2)nc(Nc2ccc(F)cc2)n1` [Compound V], for which the IC50 was 78.6 µM in experiment [1] (setting [5]); 45.8 µM in experiment [1] (setting [6]); 31.8 µM in experiment [2] (setting [7]); greater than 100 µM in experiment [2] (setting [8]); 43.3 µM in experiment [3] (setting [9]); 26.8 µM in experiment [3] (setting [10]). For the same compound, the IC50 in the experiment on TNFα production is 13 µM. The “EGF-induced PC-3 migration or invasion” value with PC-3 cells (1 μM to 10 μM) is given as “inhibition of the EGF-induced PC-3 migration or invasion”. In the experiment with B16F10 melanoma, the “T/C (treated/control tumor volume)” value is given as less than 40%. Further, the “PGE2 production induced by LPS” value in experiment [4] (setting [11]) and in experiment [4] (setting [14]) was “significant inhibition” each time. The “TNFα production induced by LPS” value in experiment [4] (setting [12]) and in experiment [4] (setting [13]) was “significant inhibition” throughout. Also, the “LTB4 production induced by LPS” value in experiment [4] (two hours after induction) is recorded as “weak inhibition”. Moreover, the “MCP-1 production induced by LPS” value in experiment [4] (two hours after induction) is “weak inhibition”. The “white blood cell count” value in experiment [4] is “significant inhibition”. Moreover, in the experiment on DNBS-induced colitis (oral 25 mg/kg and 50 mg/kg, FIG. 22), the “DNBS-induced macroscopic damage area of the colon mucosal tissue” value is “strong and significant decrease”. The body weight result in the experiment on DNBS-induced colitis (oral once a day for four days, 25 mg/kg and 50 mg/kg) is “weak but significant increase of body weight”.
Turning to `NCCCCCNc1nc(NCCc2ccc(S(N)(=O)=O)cc2)nc(Nc2cccc(F)c2)n1` [Compound II], the IC50 in experiment [1] (setting [5]) is greater than 100 µM; in experiment [1] (setting [6]) it was 28.6 µM; in experiment [2] (setting [7]), 92.2 µM; in experiment [2] (setting [8]), 38.9 µM; in experiment [3] (setting [9]), 32.2 µM; in experiment [3] (setting [10]), 18.5 µM. Besides, in the experiment with B16F10 melanoma, the “T/C (treated/control tumor volume)” value is reported as “around 80%”. Besides, the “PGE2 production induced by LPS” value in experiment [4] (setting [11]) is “weak and insignificant increase”; in experiment [4] (setting [14]), “weak and insignificant inhibition”. Besides, the “TNFα production induced by LPS” value in experiment [4] (setting [12]) is recorded as “no effect”; in experiment [4] (setting [13]), “increase the concentration of TNFα”. Moreover, the “LTB4 production induced by LPS” value in experiment [4] (two hours after induction) is on record as “weak inhibition”. Also, in experiment [4] (two hours after induction), the “MCP-1 production induced by LPS” value is on record as “no influence”. Also, in experiment [4], the “white blood cell count” value was “significant inhibition”.
As for `NCCCCCNc1nc(NCCc2ccc(O)cc2)nc(Nc2cccc(F)c2)n1` [Compound I], the IC50 in experiment [1] (setting [5]) was determined as 56.8 µM; in experiment [1] (setting [6]) it was 16.3 µM; in experiment [2] (setting [7]), 18.8 µM; in experiment [2] (setting [8]), 10.1 µM; in experiment [3] (setting [9]), 49.4 µM; in experiment [3] (setting [10]) it was 11.8 µM. The compound also showed an IC50 in the experiment on TNFα production of 29 µM. Besides, in the experiment on PC-3 cells (1 μM to 20 μM), the “EGF-induced PC-3 migration or invasion” value is given as “inhibition of the EGF-induced PC-3 migration or invasion”. The “T/C (treated/control tumor volume)” value in the experiment on B16F10 melanoma is “around 80%”.

Usually IC50 stands for the concentration that gives 50% inhibition.
